This is an account of results in patent US20110136880A1, “Latrunculin-Based Macrolides and Their Uses” (priority 2009, published 2011).

Test [1] concerns prostate cancer cells PC-3M-CT+. The settings on record: 100 nM dose; without cytotoxicity; cited from earlier work.
Test [2] has as its system breast, CNS, colon, lung, melanoma, ovarian, and renal cancer cells. In words: Antiproliferative testing against 60 cell lines (NSC compounds). The format is cell-based.
For another test, the system named is MCF7. Kind of test: MTT proliferation assay, MCF7. The format is cell-based, human. Particulars: for IC50: Homo sapiens, MCF7, MTT, 72 h, mean ± SEM, read-out: IC50 (μM) MCF7. An excerpt:
(§1) The antiproliferative and anti-invasive activities of compounds 1-14 were quantified using MTT and cell invasion assay kits, respectively. Latrunculin A (compound 1) was used as a positive control in all biological assays, because it is known to be an actin polymerization inhibitor, with cytotoxic, antiproliferative, and anti-invasive activities. The 3-[4,5-dimethylthiazol-2-yl]-2,5-diphenyl tetrazolium bromide (MTT) assay selectively detects living cells in a quantitative, colorimetric fashion, based on a living cell's ability to reduce MTT to an insoluble, purple formazan dye. The MTT assay is routinely used to assess cytotoxicity and proliferation inhibition activities. The antiproliferative activities of compounds 1-14 were measured against two human mammary gland adenocarcinoma cell lines, MCF7 and MDA-MB-231, and against human prostate cancer cells PC-3 at five different doses (0.1, 0.5, 1, 10, and 50 μM). While many of the semisynthetic latrunculins had similar activity levels, some had greater activity than compound 1. […] Although the MDA-MB-231 cells were more resistant than MCF7 against most latrunculin derivatives tested, compound 14 had potent activity against both cell lines.
(§2) MTT Proliferation Assay. The growth of MCF7, MDA-MB-231, and PC-3 cancer cell lines was measured using an MTT kit (TACS™, TREVIGEN®, Inc.). Exponentially growing cells were plated in a 96-well plate at a density of 8×10^3 cells per well, and allowed to attach for 24 h. Complete growth medium was then replaced with 100 μL of RPMI serum-free medium containing various concentrations (50, 10, 1, 0.5, 0.1 μM) of the particular test compound. Culture continued at 37° C. under 5% CO2. After 72 h of culture, the cells were treated with MTT solution (10 μL/well) at 37° C. for 4 h. The color reaction was stopped by adding solubilization/stop solution (100 μL/well). Incubation continued at 37° C. continued to completely dissolve the formazan dye product. Absorbance of the samples was determined at 570 nm with an ELISA plate reader (BioTek, VT). The number of cells per well was calculated against a standard curve that had been prepared by plating various concentrations of cells, as determined by hemocytometer, at the start of each experiment. IC50 for each compound was calculated using a nonlinear regression curve fit of log concentration versus the number of cells/well, using GraphPad Prism 5.0 (GraphPad Software, La Jolla, Calif.).
On the technique in general: Tetrazolium assays rely on reduction of a dye to a coloured formazan, in cell work by metabolically active cells.

Another test concerns MDA-MB-231. Kind of test: MTT proliferation assay, MDA-MB-231. The format is cell-based, human. The settings on record: for IC50: Homo sapiens, MDA-MB-231, MTT, 72 h, mean ± SEM, read-out: IC50 (μM) MDA-MB-231.
Source text: as §1, §2

The test system of another test is MDA-MB-231 cells. In words: Cultrex BME cell invasion assay. The format is cell-based, human. The procedure:
The anti-invasive activities of compounds 1-14 were measured using a 96 well basement membrane extract (BME) cell invasion assay kit against the highly metastatic MDA-MB-231 cells. This assay employs a simplified Boyden Chamber with a polyethylene terephthalate membrane (8 μm pore size). Cell invasion was quantified using calcein-acetomethylester (calcein-AM). Cells internalize calcein-AM; intracellular esterases then cleave the acetomethylester moiety to generate free calcein. Free calcein fluoresces brightly. This fluorescence may be used to quantify the number of cells that have invaded across the BME. To correlate the anti-invasive activities of the latrunculin A derivatives with their actin-disrupting activities, compounds 1-14 were each tested at non-toxic concentrations. […] Accordingly, all compounds were tested at 0.1, 0.5, and 1.0 μM. Compound 3 killed 17% of MDA-MB-231 cells at 1.0 μM, while the same dose of compound 3 inhibited 95% of MDA-MB-231 cells' invasion. […] The anti-invasive activities of compounds 1-14 are attributed primarily to the inhibition of actin polymerization, not to cell death per se.
Cultrex® Cell Invasion Assay. Anti-invasive activities were measured using Trevigen's Cultrex® Cell Invasion Assay as described in K. Tamilarasan et al., BMC Cell Biol. 2006, 7, 17-30; and P. Borghesani et al., Development. 2002, 6, 1435-1442. About 50 μL of basement membrane extract (BME) coat was added to each well. After incubation for 4 h at 37° C. under 5% CO2, 50,000 MDA-MB-231 cells in 50 μL of serum free RPMI medium were added to each well in the top chamber, along with the test compound at one of several concentrations (0.1, 0.5, 1 μM). About 150 μL of RPMI medium was added to the lower chamber in 10% FBS and penicillin/streptomycin, using fibronectin ([…]) and N-formyl-met-leu-phe (10 nM) as chemoattractants. Cells were allowed to migrate to the lower chamber at 37° C. under 5% CO2. After 24 h, the top and bottom chambers were aspirated and washed with the washing buffer that had been supplied with the kit. About 100 μL of Cell Dissociation Solution/Calcein-AM solution was added to the bottom chamber, and the cells were incubated at 37° C. under CO2 for 1 h. Briefly, the cells internalize calcein-AM, and then the intracellular esterases cleave the AM moiety to generate free calcein. […] The number of cells that had invaded through the BME coat was calculated using a standard curve.

In another test the test system is PC-3. Kind of test: MTT proliferation assay, PC-3. The format is cell-based, human. Particulars: for IC50: Homo sapiens, PC-3, MTT, 72 h, read-out: IC50 (μM) PC-3.
Source text: as §1, §2

In another test the target is T1, pyrene-conjugated actin (Oryctolagus cuniculus, UniProt P68135).
T1 construct: purchased Cytoskeleton, Denver, Colo
Kind of test: Pyrene actin polymerization assay. The test is classed as biochemical. Particulars: for inhibition at 0.1 µM: 100 nM, read-out: Actin polymerization inhibition (%) 100 nM; for inhibition at 0.1 µM / inhibition at 1 µM: compared to vehicle control (DMSO); for inhibition at 1 µM: read-out: Actin polymerization inhibition (%) 1 μM; for IC50: mean ± SEM, triplicate. The procedure: An actin polymerization kit was used to assess the direct actin-binding activity of each analogue at two concentrations: 100 nM and 1 μM. This kit is based on the enhanced fluorescence of pyrene-conjugated actin that occurs during polymerization. When pyrene-G-actin (monomer) forms pyrene-F-actin, fluorescence is enhanced. The enhanced fluorescence is used to follow polymerization over time. Table 2 lists activities as the percentage of actin polymerization inhibition, compared to the negative vehicle control (DMSO), along with calculated IC50.
Pyrene-Actin Polymerization Assays. Actin polymerization assays were performed in accordance with the manufacturer's instructions (Cytoskeleton, Denver, Colo.). Briefly, […] final concentration of monomeric actin (1:10 pyrene labeled) was incubated on ice for 10 min with one of various concentrations of one of the latrunculin derivatives. Samples were then equilibrated 10 min in an ELISA plate reader (BioTek, VT), after which polymerization was induced by adding KCl, MgCl2, and ATP. Compounds 1-14 were tested at 0.1, 0.5, 1.0, and 10 μM. The IC50 for each compound was calculated using GraphPad Prism 5.0.
Pyrene-actin polymerization assays. Actin polymerization inhibitory activity is assessed using the Cytoskeleton Actin Polymerization kit (Cytoskeleton, Denver, Colo.). Briefly, […] (final concentration) of monomeric actin (1:10 pyrene labeled) is incubated on ice for 10 min with one of various concentrations of the test latrunculin compound. Samples are equilibrated 10 min in an ELISA plate reader (BioTek, VT), after which polymerization is induced by adding KCl, MgCl2, and ATP. Compounds are tested at 0.1, 0.5, 1.0, and 10 μM. The IC50 for each compound is calculated using GraphPad Prism 5.0.

For test [3], the system named is alkaline phosphatase in HuADSC cells. In words: Alkaline phosphatase in HuADSC cells. The test is classed as cell-based.
The next test has as its system array of kinases. In words: Kinase profiling. The format is binding. Particulars: any kinase tested. The procedure:
Latrunculins B and H (compounds 20 and 14, respectively) were tested in a panel of assays including ApoE secretion, anti-angiogenesis, G2/M, Wnt pathway, insulin secretion, and an array of kinase profiling. The G2/M assays include HeLa cell proliferation, apoptosis, DNA content, and condensation, cyclin B, and phosphor-histone H3. […] Alkaline phosphatases may perhaps be a target of the anti-invasive latrunculin 11.

The test system of test [4] is alkaline phosphatase in C2C12 cells. In words: Alkaline phosphatase in C2C12 cells (Wnt pathway). The format is cell-based. An excerpt:
(§3) Effects on Wnt/β-catenin. […] These two compounds affected both alkaline phosphatase and β-catenin levels in C2C12 cells.

Test [5] concerns microvessel density marker CD31 in endothelial colony forming cells (ECFCs). Kind of test: Angiogenesis inhibition assay (CD31 in ECFCs). The test is classed as cell-based. The procedure:
Effects on Angiogenesis. Angiogenesis inhibition assays were conducted using endothelial colony forming cells (ECFCs). The microvessel density marker CD31 was quantified using confocal laser scanning microscopy and immunohistochemistry.

In a further test the test system is β-catenin in C2C12 cells. Kind of test: Wnt/β-catenin signaling, β-catenin levels in C2C12 cells. The format is cell-based.
Source text: as §3

Another test deals with HeLa cells. In words: HeLa cell G2/M assays. The format is cell-based. Particulars: less active than compound 11. An excerpt:
This assay measures HeLa cell proliferation, apoptosis, DNA content and condensation, cyclin B, and phosphor-histone H3.

“latrunculin A 17-O-phenyl carbamate [Compound 18]”: the “migration of PC-3M-CT+ cells” value in test [1] is “inhibits the migration”.

The IC50 is the concentration needed to halve the response being measured. What is called inhibition is the change of the read-out against control, counted positive when it falls. Consider `C/C1=C/C(=O)O[C@@H]2C[C@@H](CC[C@H](C)/C=C\C=C\CC1)O[C@@](OCCc1ccccc1)([C@@H]1CSC(=O)N1)C2` [Compound 3, 17-O-Phenylethyllatrunculin A], for which, in test [2] (dose of 10 μM), the “number of the 60 cell lines tested with antiproliferative activity” value was found to be 18. Further, the log10GI50 in [2] (five-points dose-response, range over active cell lines) was −7.02 to −7.90. Further, the IC50 is 0.1 ± 0.07 µM in the test with MCF7, 2.71 ± 0.52 µM in the test with MDA-MB-231, 1.22 µM in the test on PC-3 and 184 ± 48 nM against pyrene-conjugated actin. For the same molecule, in the test on MCF7 (relative to compound 1), the “fold increase in activity against MCF7 versus compound 1” value was determined as 4.8 fold. For the same molecule, the MDA-MB-231 cells killed with MDA-MB-231 (1.0 μM) was found to be 17%. Further, the “fold more active against cell invasion than latrunculin A (compound 1)” value in the test on MDA-MB-231 cells (0.5 μM) came to 3.3 fold. The inhibition at 1 µM in the test with MDA-MB-231 cells (Homo sapiens, MDA-MB-231, 1.0 μM) turned out to be 95%; at pyrene-conjugated actin, 94%. Besides, in the test on PC-3 (relative to compound 1), the “fold increase in activity against PC-3 versus compound 1” value was found to be 3.2 fold. The inhibition at 0.1 µM at pyrene-conjugated actin came to 31%.

Broadly, the EC50 is the concentration that produces a half-maximal response. Low readings indicate an effect from little substance, high ones a need for much substance. Regarding `C/C1=C/C(=O)O[C@@H]2C[C@@H](CC[C@H](C)/C=C\CC1)O[C@@](O)([C@@H]1CSC(=O)N1)C2` [Compound 20, latrunculin B], the EC50 in test [3] amounted to 141 nM; in [4] it was 91 nM. Moreover, the affinity toward kinases result in the test with array of kinases is recorded as “Neither compound 20 nor compound 14 showed affinity toward any kinase tested”. Further, the “inhibition of CD31 in ECFCs” value in test [5] (2 μM) and in test [5] (10 μM) was 100% in each case. Besides, the IC50 in test [5] (read-out: IC50 CD31 in ECFCs) worked out at 43 nM. For the same molecule, in the test with β-catenin in C2C12 cells, the Wnt/β-catenin signaling entry is given as “strongly inhibited”. Further, the “activity in G2_M assays compared with nocodazole” value in the test with HeLa cells is reported as “greater activity than did nocodazole”.

On to `CCN1C(=O)SC[C@H]1[C@@]1(O)C[C@H]2C[C@@H](CC[C@H](C)/C=C\C=C\CC/C(C)=C\C(=O)O2)O1` [Compound 12, N-Ethyllatrunculin A], for which the concentration for half-maximal inhibition (IC50) in the test on MCF7 turned out to be 0.95 µM; in the test on MDA-MB-231, 7.19 µM; in the test with PC-3, 5.72 µM; against pyrene-conjugated actin it was 283 ± 51 nM. Moreover, the “anti-invasive activity compared with compound 1” value in the test with MDA-MB-231 cells (1 and 0.5 μM doses) is recorded as “equipotent to compound 1”. In addition, at pyrene-conjugated actin, the inhibition at 0.1 µM is 32%. Further, on pyrene-conjugated actin, the inhibition at 1 µM was 70%.
